This is an account of results in patent US8987486B2, “Trans-2-decenoic acid derivative and pharmaceutical agent containing the same” (Nagoya Industrial Science Research Institute, priority 2010, dated 2015).

Format in all cases: in vivo
Assay [1] has as its system Male ddY strain mice loaded with forced swimming stress. The experiment in a line: Suppressive effect for depressive symptom as a result of stress loading (forced swimming). To be noted: 100 μg/kg body weight intraperitoneally every day, thirteenth day after stress loading, versus PBS control. The procedure:
Male ddY strain mice of seven weeks age were loaded, as the stress, with forced swimming of 6 minutes every day for 2 weeks and the evaluation of suppressive effect for depression symptom was conducted. Thus, as from the initiation of loading the stress, the compound 1 dissolved in 0.1% DMSO was intraperitoneally administered every day in a dose of 100 μg/kg body weight and the immobility time of the mice upon the forced swimming was measured (n=5). As a control, a phosphate-buffered physiological saline (PBS) was intraperitoneally administered to the mice during two weeks and the immobility time was measured (n=4). The cases to which no stress was loaded were also administered with each of the compound 1 and the phosphate buffered saline (PBS) as same as in the cases to which the stress was loaded. Incidentally the test of significance was conducted by means of a two-way ANOVA, Bonferroni test.

For assay [2], the system named is Spinal cord injury model rats. Nature of the assay: Repairing action for the spinal cord injury, BBB scale (complete cut at T10). To be noted: 100 μg/kg body weight intraperitoneally once daily, after six weeks, n=6. The procedure:
Spinal cord injury model rats were prepared and the repairing action of the compound 1 for the spinal cord injury was investigated. The compound 1 was dissolved in a phosphate buffered saline (PBS) and intraperitoneally administered to each spinal cord injury model rat once daily in a dose of 100 μg/kg body weight. As a control, PBS was similarly administered.
Female Wistar rats of seven weeks age were anesthetized with pentobarbital (40 mg/kg), the spinal column was exposed, vertebral arch of the ninth thoracic vertebra was excised and the tenth thoracic cord (T10) was completely cut using a sharp knife. After the back muscle and the skin were satured, paralysis of hind limbs was confirmed to prepare spinal cord injury model rats.
For each of the groups administered with the compound 1 and PBS, the improvement in motor function of the spinal cord injury model rats during six weeks was evaluated every day according to a BBB scale (Basso D M, et al., J. Neurotrauma, 12:1-21 (1995)) (0 for immediately after the injury while 21 for non-injury). Incidentally, the test of significance was conducted by a two-way ANOV, Bonferroni test.

The test system of assay [3] is chronic mild stress-induced depression model mice. The experiment in a line: Tail suspension test in chronic mild stress-induced depression model mice. The conditions noted are these: control 103.18±15.96 seconds. The procedure: Female ddY strain mice of seven weeks age (n=8 to 12) were (A) subjected to forced swimming for 15 minutes and then to normal breeding for two clays, (B) subjected to breeding in an inclined cage for two days and then to normal breeding for one day, (C) subjected to breeding for one day where the floor mat was made wet and then to normal breeding for one day and (D) subjected to breeding for one day using a cage which was rotated at the rate of 180 rotations/minute and then to normal breeding for one clay. Further, (B) to (D) were repeated for two times and stress was loaded for three weeks in total to prepare chronic mild stress-induced depression model mice. During that time, the compound of the present invention dissolved in PBS or in a PBS solvent containing DMSO, etc. was orally administered once daily for three weeks and, after that, the suppressive effect for depressive symptom was evaluated by means of a tail suspension test. Thus, the area which was 1 cm from the tip of the tail of a mouse was grasped with hand and kept at the height of 10 cm from the floor, an observation was conducted for six minutes and the length of immobility time which is an index for the depressive symptom was measured. Incidentally, the test of significance was carried out by a one-way ANOVA, Tukey's Multiple Comparison Test.

For assay [4], the system named is chronic mild stress-induced depressive model mice. Nature of the assay: Elevated plus maze test in chronic mild stress-induced depressive model mice. To be noted: 1,500 μg/kg orally once daily for three weeks; control 25.37±4.13 seconds. The procedure: The same operation as in the above Test Example 7 was conducted to prepare chronic mild stress-induced depressive model mice (n=8 to 12). During that time, the compound of the present invention dissolved in PBS or in a PBS solvent containing DMSO, etc. was orally administered once daily for three weeks and, after that, the suppressive effect for anxiety symptom was evaluated by means of an elevated plus maze test. Thus, time when the mouse stayed in an open arm of the elevated plus maze and the frequency (motility amount) of coming in and out of the mouse for both open arm and closed arm were measured. When the anxiety symptom was stronger, the staying time in the open arm was shorter. At that time, it is confirmed that there is no difference in the frequencies for coming in and out the arm between the cases where the stress is and is not loaded. Incidentally, the test for significance was carried out by a one-way ANOVA, Tukey's Multiple Comparison Test.

Assay [5] has the same test system. The experiment in a line: Spontaneous alternation behavior test (Y-maze test) in chronic mild stress-induced depressive model mice. The procedure: The same operation as in the above Test Example 7 was conducted to prepare chronic mild stress-induced depressive model mice (n=8 to 12). During that time, the compound of the present invention dissolved in PBS or in a PBS solvent containing DMSO, etc. was orally administered once daily for three weeks and, after that, evaluation for learning and memorizing behaviors was conducted by means of a spontaneous alternation behavior test (Y-maze test). Thus, an animal was placed at the front end of any arm in the Y-maze and allowed to freely walk in the maze for ten minutes, the arms into which the animal entered were successively recorded and the entry numbers of the animal into each arm within a measuring time (total arm entries) and the combined entry numbers into continuously different three arms (alternating behavior numbers) were checked. The alternating behavior rate (%) was calculated by the following expression and the spontaneous alternating behavior was evaluated as an index of short-term memory. Incidentally, the test of significance was conducted by a one-way ANOVA, Tukey's Multiple Comparison Test. Alternating behavior rate (%)=(Alternating behavior numbers)/(Total arm entries−2)×100

SMILES strings stand for the structures.

Turning to `CCCCCCC/C=C/C(=O)OCCN(C)C` [Compound 1, (E)-2-(dimethylamino)ethyl dec-2-enoate], the “immobility time upon forced swimming” value in assay [1] is “significantly shortened the immobility time”. Also, in assay [2], the “mean value of BBB scores±SE” value is recorded as 11.60±2.2.
In the case of `CCCCCCC/C=C/C(=O)OCCN(CC)CC` [Compound 6, (E)-2-(diethylamino)ethyl dec-2-enoate], the “immobility time (tail suspension test)” value in assay [3] (1,500 orally once daily for three weeks) turned out to be 80.67 ± 23.94 s. In assay [4], the “staying time in an open arm (elevated plus maze)” value is 53.57 ± 7.00 s. For the same molecule, in assay [5] (300 μg/kg orally once daily for three weeks, control 60.21±2.39%), the alternating behavior rate turned out to be 75.40±3.22%.
In the case of `CCCCCCC/C=C/C(=O)NCCN(C)C` [Compound 36, (E)-N-2-(dimethylamino)ethyl dec-2-enamide], the alternating behavior rate in assay [5] (1,500 μg/kg orally once daily for three weeks, control 61.76±2.01%) came to 71.52±2.50%.
For `CCCCCCC/C=C/C(=O)SCCN(C)C` [Compound 55, (E)-S-2-(dimethylamino)ethyl dec-2-enethioate], in assay [3] (1,500 μg/kg orally once daily for three weeks), the “immobility time (tail suspension test)” value came to 63.72 ± 10.13 s. In addition, the “staying time in an open arm (elevated plus maze)” value in assay [4] came out at 47.24 ± 7.52 s.
